Converted amounts (≈) assume the structure as drawn.
Experiments:
Type in all cases: functional
[1] = tested on: Candida parapsilosis; assay: Antimicrobial activity against Candida parapsilosis MTCC1744 measured after 24 hrs by well-diffusion method; conditions: Lodderomyces parapsilosis, MTCC1744, 24 h
[2] = tested on: Pichia kudriavzevii; assay: Antimicrobial activity against Candida krusei MTCC3020 measured after 24 hrs by well-diffusion method; conditions: MTCC3020, 24 h
[3] = tested on: Candida albicans; assay: Antimicrobial activity against Candida albicans MTCC3017 measured after 24 hrs by well-diffusion method; conditions: MTCC3017, 24 h
[4] = tested on: Candida albicans; assay: Antimicrobial activity against Candida albicans MTCC4748 measured after 24 hrs by well-diffusion method; conditions: MTCC4748, 24 h
[5] = tested on: Candida albicans; assay: Antimicrobial activity against Candida albicans MTCC3958 measured after 24 hrs by well-diffusion method; conditions: MTCC3958, 24 h
[6] = tested on: Candida albicans; assay: Antimicrobial activity against Candida albicans MTCC1637 measured after 24 hrs by well-diffusion method; conditions: MTCC1637, 24 h
[7] = tested on: Candida albicans; assay: Antimicrobial activity against Candida albicans MTCC183 measured after 24 hrs by well-diffusion method; conditions: MTCC183, 24 h
[8] = tested on: Candida albicans; assay: Antimicrobial activity against Candida albicans MTCC227 measured after 24 hrs by well-diffusion method; conditions: MTCC227, 24 h
[9] = tested on: Candida albicans; assay: Antimicrobial activity against Candida albicans MTCC7315 measured after 24 hrs by well-diffusion method; conditions: MTCC7315, 24 h
[10] = tested on: Candida albicans; assay: Antimicrobial activity against Candida albicans MTCC3018 measured after 24 hrs by well-diffusion method; conditions: MTCC3018, 24 h
[11] = tested on: Nakaseomyces glabratus; assay: Antimicrobial activity against Candida glabrata MTCC3019 measured after 24 hrs by well-diffusion method; conditions: MTCC3019, 24 h
[12] = tested on: Candida albicans; assay: Antimicrobial activity against Candida albicans MTCC854 measured after 24 hrs by well-diffusion method; conditions: MTCC854, 24 h
[13] = tested on: Pichia sporocuriosa; assay: Antimicrobial activity against Issatchenkia hanoiensis MTCC4755 measured after 24 hrs by well-diffusion method; conditions: MTCC4755, 24 h
[14] = tested on: Staphylococcus aureus; assay: Antimicrobial activity against Staphylococcus aureus MTCC96 measured after 24 hrs by well-diffusion method; conditions: MTCC96, 24 h
[15] = tested on: Pseudomonas aeruginosa; assay: Antimicrobial activity against Pseudomonas aeruginosa MTCCM2453 measured after 24 hrs by well-diffusion method; conditions: MTCCM2453, 24 h
[16] = tested on: Staphylococcus aureus; assay: Antimicrobial activity against Staphylococcus aureus MLS16 MTCC2940 measured after 24 hrs by well-diffusion method; conditions: MLS16 MTCC2940, 24 h
[17] = tested on: Micrococcus luteus; assay: Antimicrobial activity against Micrococcus luteus MTCC2470 measured after 24 hrs by well-diffusion method; conditions: MTCC2470, 24 h
[18] = tested on: Escherichia coli; assay: Antimicrobial activity against Escherichia coli MTCC739 measured after 24 hrs by well-diffusion method; conditions: MTCC739, 24 h
[19] = tested on: Raoultella planticola; assay: Antimicrobial activity against Klebsiella planticola MTCC530 measured after 24 hrs by well-diffusion method; conditions: MTCC530, 24 h
[20] = tested on: Bacillus subtilis; assay: Antimicrobial activity against Bacillus subtilis MTCC121 measured after 24 hrs by well-diffusion method; conditions: MTCC121, 24 h
[21] = tested on: Bacillus subtilis; assay: Bactericidal activity against Bacillus subtilis MTCC121 measured after 24 hrs; conditions: MTCC121, 24 h
[22] = tested on: Staphylococcus aureus; assay: Bactericidal activity against Staphylococcus aureus MLS16 MTCC2940 measured after 24 hrs; conditions: MLS16 MTCC2940, 24 h
[23] = tested on: Micrococcus luteus; assay: Bactericidal activity against Micrococcus luteus MTCC2470 measured after 24 hrs; conditions: MTCC2470, 24 h
[24] = tested on: Staphylococcus aureus; assay: Bactericidal activity against Staphylococcus aureus MTCC96 measured after 24 hrs; conditions: MTCC96, 24 h
[25] = tested on: Bacillus subtilis; assay: Anti-biofilm activity against Bacillus subtilis MTCC121 measured after 24 hrs by crystal violet-staining based method; conditions: MTCC121, 24 h
[26] = tested on: Candida albicans; assay: Fungicidal activity against Candida albicans MTCC183 measured after 24 hrs; conditions: MTCC183, 24 h
[27] = tested on: Micrococcus luteus; assay: Anti-biofilm activity against Micrococcus luteus MTCC2470 measured after 24 hrs by crystal violet-staining based method; conditions: MTCC2470, 24 h
[28] = tested on: [Candida] aaseri; assay: Fungicidal activity against Candida aaseri MTCC1962 measured after 24 hrs; conditions: Yamadazyma aaseri, MTCC1962, 24 h
[29] = tested on: Candida albicans; assay: Fungicidal activity against Candida albicans MTCC3958 measured after 24 hrs; conditions: MTCC3958, 24 h
[30] = tested on: Pichia kudriavzevii; assay: Anti-biofilm activity against Candida krusei MTCC3020 measured after 24 hrs by crystal violet-staining based method; conditions: MTCC3020, 24 h
[31] = tested on: Candida albicans; assay: Fungicidal activity against Candida albicans MTCC854 measured after 24 hrs; conditions: MTCC854, 24 h
[32] = tested on: Pichia kudriavzevii; assay: Fungicidal activity against Candida krusei MTCC3020 measured after 24 hrs; conditions: MTCC3020, 24 h
[33] = tested on: Candida parapsilosis; assay: Fungicidal activity against Candida parapsilosis MTCC1744 measured after 24 hrs; conditions: Lodderomyces parapsilosis, MTCC1744, 24 h
[34] = tested on: Candida albicans; assay: Fungicidal activity against Candida albicans MTCC3018 measured after 24 hrs; conditions: MTCC3018, 24 h
[35] = tested on: Nakaseomyces glabratus; assay: Fungicidal activity against Candida glabrata MTCC3019 measured after 24 hrs; conditions: MTCC3019, 24 h
[36] = tested on: Staphylococcus aureus; assay: Anti-biofilm activity against Staphylococcus aureus MTCC96 measured after 24 hrs by crystal violet-staining based method; conditions: MTCC96, 24 h
[37] = tested on: Candida albicans; assay: Fungicidal activity against Candida albicans MTCC1637 measured after 24 hrs; conditions: MTCC1637, 24 h
[38] = tested on: Candida albicans; assay: Fungicidal activity against Candida albicans MTCC227 measured after 24 hrs; conditions: MTCC227, 24 h
[39] = tested on: Candida albicans; assay: Fungicidal activity against Candida albicans MTCC4748 measured after 24 hrs; conditions: MTCC4748, 24 h
[40] = tested on: Staphylococcus aureus; assay: Anti-biofilm activity against Staphylococcus aureus MLS16 MTCC2940 measured after 24 hrs by crystal violet-staining based method; conditions: MLS16 MTCC2940, 24 h
[41] = tested on: Candida albicans; assay: Fungicidal activity against Candida albicans MTCC7315 measured after 24 hrs; conditions: MTCC7315, 24 h

## Clc1ccc(COC(Cn2ccnc2)c2ccc(Cl)cc2Cl)c(Cl)c1 (configuration not stated) [MICONAZOLE]
[1]
  MIC: 7.8 µg/mL (≈ 18.7 µM)
[2]
  MIC: 7.8 µg/mL (≈ 18.7 µM)
[3]
  MIC: 7.8 µg/mL (≈ 18.7 µM)
[4]
  MIC: 7.8 µg/mL (≈ 18.7 µM)
[5]
  MIC: 7.8 µg/mL (≈ 18.7 µM)
[6]
  MIC: 7.8 µg/mL (≈ 18.7 µM)
[7]
  MIC: 7.8 µg/mL (≈ 18.7 µM)
[8]
  MIC: 7.8 µg/mL (≈ 18.7 µM)
[9]
  MIC: 7.8 µg/mL (≈ 18.7 µM)
[10]
  MIC: 7.8 µg/mL (≈ 18.7 µM)
[11]
  MIC: 7.8 µg/mL (≈ 18.7 µM)
[12]
  MIC: 7.8 µg/mL (≈ 18.7 µM)
[13]
  MIC: 7.8 µg/mL (≈ 18.7 µM)

## CCCCCCC(C/C=C\CCCCCCCC(=O)OC)NC(=O)[C@@H](N)Cc1c[nH]c2ccccc12 (some centres not stated)
[14]
  MIC: > 125 µg/mL
[15]
  MIC: > 125 µg/mL
[3]
  MIC: > 125 µg/mL
[16]
  MIC: > 125 µg/mL
[4]
  MIC: > 125 µg/mL
[5]
  MIC: > 125 µg/mL
[6]
  MIC: > 125 µg/mL
[17]
  MIC: > 125 µg/mL
[7]
  MIC: > 125 µg/mL
[8]
  MIC: > 125 µg/mL
[18]
  MIC: > 125 µg/mL
[9]
  MIC: > 125 µg/mL
[10]
  MIC: > 125 µg/mL
[19]
  MIC: > 125 µg/mL
[12]
  MIC: > 125 µg/mL
[20]
  MIC: > 125 µg/mL

## O=C(O)c1cn(C2CC2)c2cc(N3CCNCC3)c(F)cc2c1=O [CIPROFLOXACIN]
[14]
  MIC: 0.9 µg/mL (≈ 2.72 µM)
[21]
  MBC: 0.7 to 1.9 µg/mL (≈ 2.11 to 5.73 µM)
[15]
  MIC: 0.9 µg/mL (≈ 2.72 µM)
[16]
  MIC: 0.9 µg/mL (≈ 2.72 µM)
[17]
  MIC: 0.9 µg/mL (≈ 2.72 µM)
[18]
  MIC: 0.9 µg/mL (≈ 2.72 µM)
[22]
  MBC: 0.7 to 1.9 µg/mL (≈ 2.11 to 5.73 µM)
[23]
  MBC: 0.7 to 1.9 µg/mL (≈ 2.11 to 5.73 µM)
[19]
  MIC: 0.9 µg/mL (≈ 2.72 µM)
[24]
  MBC: 0.7 to 1.9 µg/mL (≈ 2.11 to 5.73 µM)
[20]
  MIC: 0.9 µg/mL (≈ 2.72 µM)

## CCCCCCC(C/C=C\CCCCCCCC(=O)OC)NC(=O)[C@@H](N)[C@@H](C)CC (some centres not stated)
[14]
  MIC: > 125 µg/mL
[15]
  MIC: > 125 µg/mL
[3]
  MIC: > 125 µg/mL
[16]
  MIC: > 125 µg/mL
[4]
  MIC: > 125 µg/mL
[5]
  MIC: > 125 µg/mL
[6]
  MIC: > 125 µg/mL
[17]
  MIC: > 125 µg/mL
[7]
  MIC: > 125 µg/mL
[8]
  MIC: > 125 µg/mL
[18]
  MIC: > 125 µg/mL
[9]
  MIC: > 125 µg/mL
[10]
  MIC: > 125 µg/mL
[19]
  MIC: > 125 µg/mL
[12]
  MIC: > 125 µg/mL
[20]
  MIC: > 125 µg/mL

## CCCCCCC(C/C=C\CCCCCCCC(=O)OC)NC(=O)CN (configuration not stated)
[25]
  IC50: 2.9 µg/mL (≈ 7.87 µM)
[26]
  MFC: 7.8 to 31.2 µg/mL (≈ 21.2 to 84.7 µM)
[27]
  IC50: 1.9 µg/mL (≈ 5.16 µM)
[28]
  MFC: 7.8 to 31.2 µg/mL (≈ 21.2 to 84.7 µM)
[14]
  MIC: 3.9 µg/mL (≈ 10.6 µM)
[1]
  MIC: 7.8 µg/mL (≈ 21.2 µM)
[29]
  MFC: 7.8 to 31.2 µg/mL (≈ 21.2 to 84.7 µM)
[30]
  IC50: 4.1 µg/mL (≈ 11.1 µM)
[21]
  MBC: 7.8 µg/mL (≈ 21.2 µM)
[2]
  MIC: 7.8 µg/mL (≈ 21.2 µM)
[15]
  MIC: > 125 µg/mL
[3]
  MIC: 7.8 µg/mL (≈ 21.2 µM)
[16]
  MIC: 7.8 µg/mL (≈ 21.2 µM)
[4]
  MIC: 7.8 µg/mL (≈ 21.2 µM)
[5]
  MIC: 7.8 µg/mL (≈ 21.2 µM)
[6]
  MIC: 7.8 µg/mL (≈ 21.2 µM)
[17]
  MIC: 3.9 µg/mL (≈ 10.6 µM)
[7]
  MIC: 7.8 µg/mL (≈ 21.2 µM)
[31]
  MFC: 7.8 to 31.2 µg/mL (≈ 21.2 to 84.7 µM)
[32]
  MFC: 7.8 µg/mL (≈ 21.2 µM)
[33]
  MFC: 7.8 to 31.2 µg/mL (≈ 21.2 to 84.7 µM)
[8]
  MIC: 7.8 µg/mL (≈ 21.2 µM)
[18]
  MIC: > 125 µg/mL
[34]
  MFC: 7.8 to 31.2 µg/mL (≈ 21.2 to 84.7 µM)
[22]
  MBC: 7.8 µg/mL (≈ 21.2 µM)
[35]
  MFC: 7.8 to 31.2 µg/mL (≈ 21.2 to 84.7 µM)
[9]
  MIC: 7.8 µg/mL (≈ 21.2 µM)
[10]
  MIC: 7.8 µg/mL (≈ 21.2 µM)
[36]
  IC50: 2.1 µg/mL (≈ 5.7 µM)
[37]
  MFC: 7.8 to 31.2 µg/mL (≈ 21.2 to 84.7 µM)
[23]
  MBC: 7.8 µg/mL (≈ 21.2 µM)
[11]
  MIC: 7.8 µg/mL (≈ 21.2 µM)
[19]
  MIC: > 125 µg/mL
[12]
  MIC: 7.8 µg/mL (≈ 21.2 µM)
[13]
  MIC: 7.8 µg/mL (≈ 21.2 µM)
[38]
  MFC: 7.8 to 31.2 µg/mL (≈ 21.2 to 84.7 µM)
[39]
  MFC: 7.8 to 31.2 µg/mL (≈ 21.2 to 84.7 µM)
[40]
  IC50: 4.1 µg/mL (≈ 11.1 µM)
[24]
  MBC: 7.8 µg/mL (≈ 21.2 µM)
[20]
  MIC: 7.8 µg/mL (≈ 21.2 µM)
[41]
  MFC: 7.8 to 31.2 µg/mL (≈ 21.2 to 84.7 µM)

— ChEMBL document CHEMBL3865846, “Synthesis and biological evaluation of ricinoleic acid-based lipoamino acid derivatives” (Bioorg Med Chem Lett, 2016)
